Assay results: PubChem BioAssay AID1259407 (Chemical Carcinogenesis Research Information System (CCRIS), 2018)
Activity calls are given as the source filed them. How the calls were made is not given here.

System: CCRIS mutagenicity, Ames/micronucleus/aberration tests
Experiment: CCRIS mutagenicity studies

Question: For O=Cc1ccco1, which mutagenic call (Test System: AMES SALMONELLA TYPHIMURIUM, Strain/Indicator: TA97, Metabolic Activation: NONE, Method: PREINCUBATION) is on record?
Answer: The mutagenic call was “inactive; negative”.

Question: What about the mutagenic call (Test System: AMES SALMONELLA TYPHIMURIUM, Strain/Indicator: TA97, Metabolic Activation: RAT, LIVER, S-9, AROCLOR 1254, Method: PREINCUBATION) of the same compound?
Answer: Its mutagenic call is “inactive; negative”.

Question: And the mutagenic call (Test System: AMES SALMONELLA TYPHIMURIUM, Strain/Indicator: TA98, Metabolic Activation: HAMSTER, LIVER, S-9, AROCLOR 1254 (10%), Method: PREINCUBATION)?
Answer: The mutagenic call was “inactive; negative”.

Question: What about the mutagenic call (Test System: AMES SALMONELLA TYPHIMURIUM, Strain/Indicator: TA98, Metabolic Activation: HAMSTER, LIVER, S-9, AROCLOR 1254, Method: PREINCUBATION) of the same compound?
Answer: Its mutagenic call is “inactive; negative”.

Question: What about the mutagenic call (Test System: AMES SALMONELLA TYPHIMURIUM, Strain/Indicator: TA98, Metabolic Activation: NONE, Method: STANDARD PLATE) of the same compound?
Answer: The mutagenic call was “inactive; negative”.

Question: And the mutagenic call (Test System: AMES SALMONELLA TYPHIMURIUM, Strain/Indicator: TA98, Metabolic Activation: RAT LIVER S-9, PHENOBARBITAL AND BETA-NAPHTHOFLAVONE, Method: PREINCUBATION)?
Answer: Its mutagenic call is “inactive; negative”.

Question: What about the mutagenic call (Test System: AMES SALMONELLA TYPHIMURIUM, Strain/Indicator: TA98, Metabolic Activation: RAT, LIVER, S-9, AROCLOR 1254 (10%), Method: PREINCUBATION) of the same compound?
Answer: The mutagenic call was “inactive; negative”.

Question: What about the mutagenic call (Test System: AMES SALMONELLA TYPHIMURIUM, Strain/Indicator: TA98, Metabolic Activation: RAT, LIVER, S-9, AROCLOR 1254, Method: PREINCUBATION) of the same compound?
Answer: Its mutagenic call is “inactive; negative”.

Question: What about the mutagenic call (Test System: AMES SALMONELLA TYPHIMURIUM, Strain/Indicator: TA98, Metabolic Activation: S-9, Method: STANDARD PLATE) of the same compound?
Answer: The mutagenic call was “inactive; negative”.

Question: What about the mutagenic call (Test System: AMES SALMONELLA TYPHIMURIUM, Strain/Indicator: TA100, Metabolic Activation: HAMSTER, LIVER, S-9, AROCLOR 1254 (10%), Method: PREINCUBATION) of the same compound?
Answer: Its mutagenic call is “inactive; negative”.

Question: What about the mutagenic call (Test System: AMES SALMONELLA TYPHIMURIUM, Strain/Indicator: TA100, Metabolic Activation: HAMSTER, LIVER, S-9, AROCLOR 1254, Method: PREINCUBATION) of the same compound?
Answer: Its mutagenic call is “inactive; negative”.

Question: What about the mutagenic call (Test System: AMES SALMONELLA TYPHIMURIUM, Strain/Indicator: TA100, Metabolic Activation: NONE, Method: STANDARD PLATE) of the same compound?
Answer: The mutagenic call was “inactive; negative”.

Question: And the mutagenic call (Test System: AMES SALMONELLA TYPHIMURIUM, Strain/Indicator: TA100, Metabolic Activation: RAT LIVER S-9, AROCLOR 1254, Method: PREINCUBATION)?
Answer: The mutagenic call was “inactive; negative”.

Question: And the mutagenic call (Test System: AMES SALMONELLA TYPHIMURIUM, Strain/Indicator: TA100, Metabolic Activation: RAT LIVER S-9, PHENOBARBITAL AND BETA-NAPHTHOFLAVONE, Method: PREINCUBATION)?
Answer: The mutagenic call was “inactive; negative”.

Question: What about the mutagenic call (Test System: AMES SALMONELLA TYPHIMURIUM, Strain/Indicator: TA100, Metabolic Activation: RAT, LIVER, S-9, AROCLOR 1254 (10%), Method: PREINCUBATION) of the same compound?
Answer: The mutagenic call was “inactive; negative”.

Question: And the mutagenic call (Test System: AMES SALMONELLA TYPHIMURIUM, Strain/Indicator: TA100, Metabolic Activation: RAT, LIVER, S-9, AROCLOR 1254, Method: PREINCUBATION)?
Answer: Its mutagenic call is “inactive; negative”.

Question: What about the mutagenic call (Test System: AMES SALMONELLA TYPHIMURIUM, Strain/Indicator: TA100, Metabolic Activation: RAT, LIVER, S-9, AROCLOR 1254, Method: STANDARD PLATE) of the same compound?
Answer: Its mutagenic call is “active; positive”.

Question: What about the mutagenic call (Test System: AMES SALMONELLA TYPHIMURIUM, Strain/Indicator: TA102, Metabolic Activation: MOUSE LIVER S-9, AROCLOR 1254, Method: PREINCUBATION) of the same compound?
Answer: The mutagenic call was “inactive; negative”.

Question: What about the mutagenic call (Test System: AMES SALMONELLA TYPHIMURIUM, Strain/Indicator: TA102, Metabolic Activation: NONE, Method: PREINCUBATION) of the same compound?
Answer: Its mutagenic call is “inactive; negative”.

Question: What about the mutagenic call (Test System: AMES SALMONELLA TYPHIMURIUM, Strain/Indicator: TA102, Metabolic Activation: RAT, LIVER, S-9, AROCLOR 1254, Method: PREINCUBATION) of the same compound?
Answer: The mutagenic call was “inactive; negative”.

Question: What about the mutagenic call (Test System: AMES SALMONELLA TYPHIMURIUM, Strain/Indicator: TA104, Metabolic Activation: MOUSE LIVER S-9, AROCLOR 1254, Method: PREINCUBATION) of the same compound?
Answer: The mutagenic call was “inactive; negative”.

Question: What about the mutagenic call (Test System: AMES SALMONELLA TYPHIMURIUM, Strain/Indicator: TA1535, Metabolic Activation: HAMSTER, LIVER, S-9, AROCLOR 1254 (10%), Method: PREINCUBATION) of the same compound?
Answer: Its mutagenic call is “inactive; negative”.

Question: What about the mutagenic call (Test System: AMES SALMONELLA TYPHIMURIUM, Strain/Indicator: TA1535, Metabolic Activation: HAMSTER, LIVER, S-9, AROCLOR 1254, Method: PREINCUBATION) of the same compound?
Answer: The mutagenic call was “inactive; negative”.

Question: And the mutagenic call (Test System: AMES SALMONELLA TYPHIMURIUM, Strain/Indicator: TA1535, Metabolic Activation: NONE, Method: PREINCUBATION)?
Answer: The mutagenic call was “inactive; negative”.

Question: What about the mutagenic call (Test System: AMES SALMONELLA TYPHIMURIUM, Strain/Indicator: TA1535, Metabolic Activation: RAT LIVER S-9, PHENOBARBITAL AND BETA-NAPHTHOFLAVONE, Method: PREINCUBATION) of the same compound?
Answer: Its mutagenic call is “inactive; negative”.

Question: What about the mutagenic call (Test System: AMES SALMONELLA TYPHIMURIUM, Strain/Indicator: TA1535, Metabolic Activation: RAT, LIVER, S-9, AROCLOR 1254 (10%), Method: PREINCUBATION) of the same compound?
Answer: Its mutagenic call is “inactive; negative”.

Question: And the mutagenic call (Test System: AMES SALMONELLA TYPHIMURIUM, Strain/Indicator: TA1535, Metabolic Activation: RAT, LIVER, S-9, AROCLOR 1254, Method: PREINCUBATION)?
Answer: Its mutagenic call is “inactive; negative”.

Question: What about the mutagenic call (Test System: AMES SALMONELLA TYPHIMURIUM, Strain/Indicator: TA1537, Metabolic Activation: HAMSTER, LIVER, S-9, AROCLOR 1254 (10%), Method: PREINCUBATION) of the same compound?
Answer: Its mutagenic call is “inactive; negative”.

Question: And the mutagenic call (Test System: AMES SALMONELLA TYPHIMURIUM, Strain/Indicator: TA1537, Metabolic Activation: HAMSTER, LIVER, S-9, AROCLOR 1254, Method: PREINCUBATION)?
Answer: Its mutagenic call is “inactive; negative”.

Question: What about the mutagenic call (Test System: AMES SALMONELLA TYPHIMURIUM, Strain/Indicator: TA1537, Metabolic Activation: NONE, Method: PREINCUBATION) of the same compound?
Answer: The mutagenic call was “inactive; negative”.

Question: And the mutagenic call (Test System: AMES SALMONELLA TYPHIMURIUM, Strain/Indicator: TA1537, Metabolic Activation: RAT LIVER S-9, PHENOBARBITAL AND BETA-NAPHTHOFLAVONE, Method: PREINCUBATION)?
Answer: The mutagenic call was “inactive; negative”.

Question: And the mutagenic call (Test System: AMES SALMONELLA TYPHIMURIUM, Strain/Indicator: TA1537, Metabolic Activation: RAT, LIVER, S-9, AROCLOR 1254 (10%), Method: PREINCUBATION)?
Answer: The mutagenic call was “inactive; negative”.

Question: What about the mutagenic call (Test System: AMES SALMONELLA TYPHIMURIUM, Strain/Indicator: TA1537, Metabolic Activation: RAT, LIVER, S-9, AROCLOR 1254, Method: PREINCUBATION) of the same compound?
Answer: The mutagenic call was “inactive; negative”.

Question: And the mutagenic call (Test System: E.COLI, Strain/Indicator: WP2UVRA, Metabolic Activation: NONE, Method: PREINCUBATION)?
Answer: The mutagenic call was “inactive; negative”.

Question: What about the mutagenic call (Test System: E.COLI, Strain/Indicator: WP2UVRA, Metabolic Activation: RAT LIVER S-9, PHENOBARBITAL AND BETA-NAPHTHOFLAVONE, Method: PREINCUBATION) of the same compound?
Answer: Its mutagenic call is “inactive; negative”.

Question: What about the mutagenic call (Test System: MOUSE LYMPHOMA, Strain/Indicator: L5178Y (TK+/TK-), Metabolic Activation: NONE, Method: SUSPENSION/PLATE) of the same compound?
Answer: The mutagenic call was “active; positive”.
